Like-named read-outs stand apart in the source and are kept apart here.
Legend:
[1] = tested on: Sclerotinia sclerotiorum; test: Antifungal effect against Sclerotinia sclerotiorum infection on wounded skin of broad bean pods (rot area, Colby synergy); type: in vivo; conditions: 30 h after inoculation, Table 3
Description: (§1) The Colby equation (Colby, 1967. Weeds 15:20-22) calculates the expected antifungal activity (E in %) of a combination comprising more than one active ingredients:
(§2) wherein X and Y are the observed antifungal activities (in %) of the individual active ingredients x and y, respectively. If the observed antifungal activity (O in %) of the combination exceeds the expected antifungal activity (E in %) of the combination and the synergy factor O/E is thus >1.0, the combined application of the active ingredients leads to a synergistic antifungal effect.
• 1) Control (without natamycin and lambda-cyhalothrin) • 2) Natamycin at a level of 15 ppm • 3) Lambda-cyhalothrin (in the product KARATE ZEON® of Syngenta) at a levels of 0.15 ppm, 0.6 ppm, 3 ppm and 15 ppm • 4) Natamycin at a level of 15 ppm combined with lambda-cyhalothrin at levels of 0.15 ppm, 0.6 ppm, 3 ppm or 15 ppm.
Used pathogen: Sclerotinia sclerotiorum.
(§3) Application: The broad bean pods were washed under tap water, and were subsequently surface sterilized by placing them in a 0.1% sodium hypochlorite solution for 5 minutes. The pods were then rinsed with tap water and dried. Transparent plastic containers were prepared by placing a piece of absorbing paper in the container and adding 25 ml of water, one container per treatment was used. The pods were cut in two, and two halve pods were incubated per box. The skin of broad bean pods was damaged with a needle, ø 2 mm and to a depth of about 3 mm into the fruit, with—depending on the size of the pod—2 to 4 wounds per half pod. In total, 6 wounds were incubated per treatment, of which 1 was used as a control. A volume of 20 microliter of a natamycin/insecticide composition, as presented herein above, was applied by pipette to each wound. The treatments were then left to air-dry. Once dried, a mycelium plug of Sclerotinia sclerotiorum was placed upside down on each wound, so that the mycelium was in direct contact with the wound. Per treatment 5 wounds were inoculated with the fungus, while the 6th and last wound was used as negative non-inoculated control. After inoculation, the containers were directly closed with a transparent plastic lid.
All pods were kept at room temperature (20° C.). Wounds of the pods were checked after 30 h of incubation.
Replicates: All treatments for the broad bean pod experiment were performed on two individual pod halves resulting in 5 wounds per treatment, while a sixth wound served as control.
The experiments were performed as described in Example 1.
The experiments were performed as described in Example 1. Assessment of the infection area was 23 h after inoculation. Experiment was performed in 5-fold.
The experiments were performed as described in Example 1. Thiamethoxam belongs to IRAC Group 4. Assessment of the infection area was 31 hours after inoculation. Experiment was performed in 5-fold.
The experiments were performed as described in Example 1. The product SPECTRE® of company (Adama) containing the active ingredient chlorfenapyr belonging to IRAC Group 13 was tested. Assessment of the infection area was 23 hours after inoculation. Experiment was performed in 5-fold.

[2] = tested on: Fusarium graminerum; type: cell-based; conditions: 6 days after inoculation, Table 10
Description: as §1, §2
(§4) Agar medium was prepared by mixing in a 100 ml Duran bottle 3.9 g of potato dextrose agar (PDA) from Carl-Roth (Carl-Roth GmbH+Co. KG, Karlsruhe, Germany) with 100 ml deionized water and autoclaving the Duran bottle at 120° C. for 15 minutes. After autoclaving, the solution was cooled by putting it in a 48° C. oven for about two hours. Afterward the semi-liquid PDA solution was carefully mixed with natamycin and/or insecticide dosages as specified in Table 5 showing the interaction results on petri dishes. The medium in the Duran bottle was divided over 5 petri dishes (90×15 mm), 20 ml per petri dish by using 25 ml serological pipets (ROTILABO®; Carl-Roth). Each natamycin and/or insecticide treatment was performed in fivefold.
(§5) Fungal spore suspensions were prepared by drenching a fully grown petri dish with sterile water. The fungus was scraped off and filtered through a Miracloth (pore size: 22-25 μm) (Merck KGaA, Darmstadt, Germany; catalogue number: 475855). The number of spores were counted with a hemocytometer and fungal suspension was adjusted to 10^6 spores per ml. Afterward, 5 μl of prepared spore suspension was pipetted on the center of the agar plate. The plates were incubated at 25° C. Measurement of the fungal growth was done using callipers at different time points. Assessment of the infection area was 6 days after inoculation.
(§6) The insecticide levels and the period after which the assessments were made are presented as specified for the different insecticides are presented in Table 5 below. Synergistic calculation was done using the Colby equation. Experiment was performed in 5-fold.
The experiments were performed as described in Example 3. The product KARATE ZEON® of company Syngenta containing the active ingredient lambda-cyhalothrin belonging to IRAC Group 3 was tested. Assessment of the infection area was 6 days after inoculation. Experiment was performed in 5-fold.

[3] = tested on: Fusarium culmorum; test: Antifungal effect against Fusarium culmorum on PDA petri dishes (fungal growth area, Colby synergy); type: cell-based; conditions: 3 days after inoculation, Table 11
Description: as §1, §2, §4, §5, §6
The experiments were performed as described in Example 3. Assessment of the infection area was 6 days after inoculation. Experiment was performed in 5-fold.
The experiments were performed as described in Example 3. The product KARATE ZEON® of company Syngenta containing the active ingredient lambda-cyhalothrin belonging to IRAC Group 3 was tested. Assessment of the infection area was 3 days after inoculation. Experiment was performed in 5-fold.

[4] = tested on: Botrytis cinerea; test: Antifungal effect against Botrytis cinerea infection on wounded peel of banana fruits (Colby synergy); type: in vivo; conditions: 5 days after inoculation
Description: as §2, §3
The infection area was measured 5 days after inoculation.
A few changes were made for the banana experiments: 5 wounds per banana were made, on each wound 40 microliter of treatments was pipetted. The treatments were then left to air-dry. Once dried, 2 microliter of a freshly prepared inoculum was pipetted on four of the wounds. The inoculum consists of […] potato dextrose broth (PDB) medium containing Botrytis cinerea spores at a concentration of 10^6 spores per ml. The fifth wound was used as negative non-inoculated control. Experiment was performed in 4-fold.
Assessment of the infection area was performed 3 days after inoculation. Experiment was performed in 4-fold.
Imidacloprid was formulated as described in Table 2. Assessment of the efficacy was 5 days after inoculation. Experiment was performed in 4-fold.

[5] = natamycin-insecticide 0-0.15 ppm
[6] = natamycin-insecticide 0-0.6 ppm
[7] = natamycin-insecticide 0-0.1 ppm
[8] = natamycin-insecticide 0-0.2 ppm
[9] = natamycin-insecticide 0-0.5 ppm
[10] = natamycin-insecticide 0-0.05 ppm
[11] = natamycin-insecticide 0:0.004 ppm, Table 12B
[12] = natamycin-insecticide 0:0.01 ppm, Table 12A
[13] = natamycin-insecticide 0:0.04 ppm, Table 12A
[14] = natamycin-insecticide 0:1 ppm, Table 12A

`CC1(C)[C@H](/C=C(\Cl)C(F)(F)F)[C@@H]1C(=O)O[C@@H](C#N)c1cccc(Oc2ccccc2)c1` [lambda-cyhalothrin, [(R)-cyano-(3-phenoxyphenyl)methyl] (1S,3S)-3-[(Z)-2-chloro-3,3,3-trifluoroprop-1-enyl]-2,2-dimethylcyclopropane-1-carboxylate] showed an Avg infected area [1, 5] of 314.73 mm^2, an Observed antifungal activity [1, 5] of −0.1% and an Avg infected area [1, 6] of 325.88 mm^2. For the same molecule, the Observed antifungal activity [1, 6] was −3.7%, the Avg infected area ([1]; natamycin-insecticide 0-3 ppm) was 350.24 mm^2 and the Observed antifungal activity ([1]; natamycin-insecticide 0-3 ppm) was −11.4%. It also gave an Avg infected area ([1]; natamycin-insecticide 0-15 ppm) of 322.41 mm^2, an Observed antifungal activity ([1]; natamycin-insecticide 0-15 ppm) of −2.5% and an Avg infected area [2, 7] of 4846.2 mm2. It also gave an Observed antifungal activity [2, 7] of −34.1%, an Avg infected area [2, 8] of 5071.1 mm2 and an Observed antifungal activity [2, 8] of −40.3%. It also gave an Avg infected area [2, 9] of 4842.3 mm2, an Observed antifungal activity [2, 9] of −34% and an Avg infected area ([2]; natamycin-insecticide 0-1 ppm) of 4714.2 mm2. It also gave an Observed antifungal activity ([2]; natamycin-insecticide 0-1 ppm) of −30.4%, an Avg infected area [3, 10] of 384.0 mm2 and an Observed antifungal activity [3, 10] of −5.9%. It also gave an Avg infected area [3, 7] of 383.9 mm2, an Observed antifungal activity [3, 7] of −5.8% and an Avg infected area [3, 8] of 370.9 mm2. For the same molecule, the Observed antifungal activity [3, 8] was −2.2%, the Avg infected area [3, 9] was 381.7 mm2 and the Observed antifungal activity [3, 9] was −5.2%. For the same molecule, the Avg infected area [4, 11] was 82.4 mm2, the Observed antifungal activity [4, 11] was 16.6% and the Avg infected area [4, 12] was 38.9 mm2. For the same molecule, the Observed antifungal activity [4, 12] was 39.0%, the Avg infected area [4, 13] was 55.1 mm2 and the Observed antifungal activity [4, 13] was 13.7%. It also gave an Avg infected area [4, 14] of 41.8 mm2 and an Observed antifungal activity [4, 14] of 34.6%.
